Reference: US20040266696A1, “Angiogenesis drugs” (priority 2001, published 2004)
Square brackets hold non-standard residues; d marks the D form. Ends that are not written are not given here.

How the values were obtained:
[1] = test system: mouse; assay: Angiogenesis action in vivo examined by DAS assay (microcell embedded in the back of mouse); conditions: for angiogenic activity / angiogenesis action (summary in words): DAS assay in mice; for Angiogenesis Magnitude (number of newly formed spiral blood vessels): peptide 10 μg/ml in DMEM injected into microcell in back of mouse, observed five days later; for formation of capillary / spiral blood vessels in tissue contacting the microcell (observation): peptide 10 μg/ml in DMEM; for formation of capillary / spiral blood vessels in tissue contacting the microcell (observation) / angiogenesis magnitude: microcell in back of mouse, five days; for angiogenesis magnitude: peptide-bound gelatin collagen I mixture solution 10 μg/ml
Procedure: A solution containing the peptide at a concentration of 10 μg/ml in DMEM (Dulbecco's modified Eagle medium) used as a cell culture medium was prepared.
The magnitude indicates the number of newly formed spiral blood vessels, and M0 means that the number is 0, M1 means 1 to 10, M2 means 11 to 20, M3 means 21 to 30, M4 means 31 to 40, M5 means 41 to 50 and M6 means 51 or more. Thus, the larger the magnitude M, the higher the angiogenic activity.
The AGP conjugate (prepared in Example 10) having a concentration of 100 μg/ml was dissolved in collagen I at a ratio of 1:10 to obtain a peptide-bound gelatin collagen mixture solution having a concentration of 10 μg/ml.

[2] = test system: transformed rat lung endothelial cells (TRLECs); assay: Angiogenic action in three-dimensionally cultured vascular endothelial tissue (tube formation); format: cell-based
Procedure: Rat vascular endothelial cells were three-dimensionally cultured in the presence of AGP synthesized in Example 1. As the cells, transformed rat lung endothelial cells (TRLECs) were used. TRLECs were placed in a collagen I layer mixed with the peptide solution, which contained 10 μg/ml of AGP, and cultured in a carbon dioxide gas incubator for 14 days. Control experiments were carried out in the absence of a factor. And positive control experiments were performed in the presence of VEGF, which is known as a potent angiogenesis factor.
No tubes were detected in the control at all. […] It was observed that a plurality of microvilli were found on the inner surfaces of the tubes. […] Tight junction formation was observed where the endothelial cells were firmly bound. These observations indicate that the endothelial cells acquired polarity and formed tubes. The polarity means that a cell develops regions having different functions such as head and tail. No polarity is given to the endothelial cells when the endothelial cells are cultured in a usual way, and so no tubes are formed.
Rat vascular endothelial cells were three-dimensionally cultured in the presence of AGP-bound gelatin synthesized in Example 10. As the cells, transformed rat lung endothelial cells (TRLECs) were used. Peptide AGP-bound gelatin (conjugate) and collagen type I were mixed at a ratio of 1:10, and TRLECs were placed in a layer containing the conjugate-collagen mixture solution, having a final concentration of 10 μg (microgram/ml) and cultured in a carbon dioxide gas incubator for 14 days. Control experiments were carried out in the absence of a factor, and in the presence of VEGF known as an angiogenesis factor.
No tube formations were detected in the control at all. […] It was observed that a plurality of microvilli were formed on the inner surfaces of the tubes. […] Tight junction formation was observed where the endothelial cells were firmly bound. These observations indicate that the endothelial cells acquired polarity and formed tubes.

[3] = TRLECs in collagen I layer, 10 μg/ml of AGP, cultured 14 days, microscope

| Substance | Angiogenesis Magnitude (number of newly formed spiral blood vessels) [1] | further results |
| --- | --- | --- |
| AGP4: AGP heptapeptide wherein the fourth amino acid tyrosine was substituted by alanine (SVVAGLR; Oligopeptide not having angiogenic activity) | M0 (M0 means that the number is 0) | angiogenic activity / angiogenesis action (summary in words) [1]: angiogenesis action was lost; formation of capillary / spiral blood vessels in tissue contacting the microcell (observation) [1]: not observed at all |
| AGP: heptapeptide (angiogenic peptide) having the amino acid sequence shown in SEQ ID NO: 1 (SVVYGLR; Oligopeptide having angiogenic activity) | M5 (M5 means 41 to 50) | tube-like structure formation by endothelial cells [2, 3]: arranged in the tube-like structure; lengths of the tubes formed, compared with VEGF ([2]; TRLECs in collagen I layer, 10 μg/ml, 14 days): significantly longer; angiogenic activity / angiogenesis action (summary in words) [1]: strong (prominent) angiogenesis action; formation of capillary / spiral blood vessels in tissue contacting the microcell (observation) [1]: a number of branched capillary blood vessels were formed; angiogenesis magnitude [1]: M5 (M5 means 41 to 50) |
| GLR (Oligopeptide not having angiogenic activity) [compound 7] | M0 (M0 means that the number is 0) | – |
| GRGDSVVYGLR (Oligopeptide having angiogenic activity) [Example 16] | – | angiogenic activity / angiogenesis action (summary in words) [1]: high angiogenic activities |
| SVV (Oligopeptide not having angiogenic activity) [compound 4] | M0 (M0 means that the number is 0) | – |
| SVV yGLR (SVV[dY]GLR) [Example 18] | M2 (M2 means 11 to 20) | – |
| SVVFGLR (Oligopeptide having angiogenic activity) [Example 12] | M6 (M6 means 51 or more) | angiogenic activity / angiogenesis action (summary in words) ([1]; listed as SEQ ID NO: 9): especially high angiogenic activity; angiogenic activity / angiogenesis action (summary in words) ([1]; listed as SEQ ID NO:9): higher angiogenic activity than the peptide having the amino acid sequence shown in SEQ ID NO: 1 |
| SVVWGLR (Oligopeptide having angiogenic activity) [Example 19] | M3 (M3 means 21 to 30) | – |
| SVVY (Oligopeptide having angiogenic activity) [Example 21] | M1 (M1 means 1 to 10) | – |
| SVVYG (Oligopeptide having angiogenic activity) [Example 20] | M2 (M2 means 11 to 20) | – |
| SVVYGL (Oligopeptide having angiogenic activity) [Example 13] | M5 (M5 means 41 to 50) | – |
| SVVYGLRG (Oligopeptide having angiogenic activity) [Example 15] | – | angiogenic activity / angiogenesis action (summary in words) [1]: high angiogenic activities |
| VEGF | M3 (M3 means 21 to 30) | tube-like structure formation by endothelial cells [2, 3]: arranged in the tube-like structure; tube-like structure formation by endothelial cells ([2]; TRLECs in conjugate-collagen type I mixture (1:10), final concentration 10 μg/ml, 14 days): arranged in the tube-like structure; angiogenesis magnitude [1]: M3 (M3 means 21 to 30) |
| VVYGLR (Oligopeptide having angiogenic activity) [Example 14] | M5 (M5 means 41 to 50) | – |
| VYGLR (Oligopeptide not having angiogenic activity) [compound 5] | M0 (M0 means that the number is 0) | – |
| YGLR (Oligopeptide not having angiogenic activity) [compound 6] | M0 (M0 means that the number is 0) | – |
